Measurements from US20220251163A1 (Sinopep-Allsino Biopharmaceutical Co., Ltd., priority 2019, published 2022).

What was measured:
[1] = Effect on random weight of ob/ob mice after single subcutaneous injection; format: in vivo; details: 100 μg/kg single s.c., X ± s, n = 7
Protocol: The mice in each group received random blood glucose value measurement before (0 h) administration and 2, 4, 6, 10 and 24 h after administration, and then the time for measuring the random blood glucose was adjusted and prolonged to 34, 48, 58 or 72 h after administration according to the blood glucose condition of the mice in each group. Meanwhile, the random weight of the mice in each group before (0 h) administration and 24 h after administration was weighed, and then the random weight of the mice corresponding to the random blood glucose measurement condition 48 or 72 h after administration was weighed.

[2] = system: ob/ob mice; experiment: Blood glucose reducing experiment, single subcutaneous injection in ob/ob mice; format: in vivo; details: 100 μg/kg single s.c.; for Blood glucose at different time after administration, 0 h: 0 h (before administration); for Blood glucose at different time after administration, 0 h / Blood glucose at different time after administration, 2 h / Blood glucose at different time after administration, 4 h / Blood glucose at different time after administration, 6 h / Blood glucose at different time after administration, 10 h / Blood glucose at different time after administration, 24 h / AUC0-24 h Glu / Blood glucose at different time after administration, 34 h: X ± s, n = 7; for AUC0-24 h Glu: blood glucose curve area within 24 h; for AUC0-24 h Glu Decrease rate: versus model control group;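 for all read-outs here: random blood glucose read at each time point, decrease rate given as percentage fall versus the model control group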
Protocol: The mice in each group received random blood glucose value measurement before (0 h) administration and 2, 4, 6, 10 and 24 h after administration, and then the time for measuring the random blood glucose was adjusted and prolonged to 34, 48, 58 or 72 h after administration according to the blood glucose condition of the mice in each group. Meanwhile, the random weight of the mice in each group before (0 h) administration and 24 h after administration was weighed, and then the random weight of the mice corresponding to the random blood glucose measurement condition 48 or 72 h after administration was weighed. The blood glucose decrease rate, the blood glucose curve area (AUC0-24 h Glu) within 24 h after administration and the decrease rate were calculated according to the following formula.
Blood glucose decrease rate=(blood glucose in the model control group−blood glucose in the administration group)/blood glucose in the model control group×100%
BG0, BG2, BG4, BG6, BG10 and BG24 represented the blood glucose values before administration (0 h) and 2, 4, 6, 10 and 24 h after administration respectively.
AUC0-24 h Glu(mmol/Lh·r) decrease rate=(model control group AUC0-24 h Glu−administration group AUC0-24 h Glu/model control group AUC0-24 h Glu×100%
Experiments were carried out twice, at an interval of 8-10 days.

Compound	Changes of random body weight at different time after administration, 0 h [1] [g]	Random body weight at different time after administration, 0 h [1] [g]	Changes of random body weight at different time after administration, 24 h [1] [g]	Random body weight at different time after administration, 24 h [1] [g]	Blood glucose at different time after administration, 0 h [2] [mmol/L]	Decrease rate of blood glucose at different time after administration, 2 h [2] [%]	Blood glucose at different time after administration, 2 h [2] [mmol/L]	Decrease rate of blood glucose at different time after administration, 4 h [2] [%]	Blood glucose at different time after administration, 4 h [2] [mmol/L]	Decrease rate of blood glucose at different time after administration, 6 h [2] [%]	Blood glucose at different time after administration, 6 h [2] [mmol/L]	Decrease rate of blood glucose at different time after administration, 10 h [2] [%]	Blood glucose at different time after administration, 10 h [2] [mmol/L]	Decrease rate of blood glucose at different time after administration, 24 h [2] [%]	Blood glucose at different time after administration, 24 h [2] [mmol/L]	AUC0-24 h Glu [2] [mmol·h/L]	AUC0-24 h Glu Decrease rate [2] [%]	Changes of random body weight at different time after administration, 48 h [1] [g]	Random body weight at different time after administration, 48 h [1] [g]	Decrease rate of blood glucose at different time after administration, 34 h [2] [%]	further results
CC[C@H](C)[C@H](NC(=O)[C@H](CO)NC(=O)[C@H](Cc1ccc(O)cc1)NC(=O)[C@H](CC(=O)O)NC(=O)[C@H](CO)NC(=O)[C@@H](NC(=O)[C@H](Cc1ccccc1)NC(=O)[C@@H](NC(=O)CNC(=O)[C@H](CCC(=O)O)NC(=O)[C@H](C)NC(=O)[C@@H](N)Cc1ccc(O)cc1)[C@@H](C)O)[C@@H](C)CC)C(=O)N[C@@H](C)C(=O)N[C@@H](CCSC)C(=O)N[C@@H](CC(=O)O)C(=O)N[C@@H](CCCCN)C(=O)N[C@H](C(=O)N[C@@H](Cc1c[nH]cn1)C(=O)N[C@@H](CCC(N)=O)C(=O)N[C@@H](CCC(N)=O)C(=O)N[C@@H](CC(=O)O)C(=O)N[C@@H](Cc1ccccc1)C(=O)N[C@H](C(=O)N[C@@H](CC(N)=O)C(=O)N[C@@H](Cc1c[nH]c2ccccc12)C(=O)N[C@@H](CC(C)C)C(=O)N[C@@H](CC(C)C)C(=O)N[C@@H](C)C(=O)N[C@@H](CCC(N)=O)C(=O)N[C@@H](CCCCN)C(=O)NCC(=O)N[C@@H](CCCCN)C(=O)N[C@@H](CCCCN)C(=O)N[C@@H](CC(N)=O)C(=O)N[C@@H](CC(=O)O)C(=O)N[C@@H](Cc1c[nH]c2ccccc12)C(=O)N[C@@H](CCCCN)C(=O)N[C@@H](Cc1c[nH]cn1)C(=O)N[C@@H](CC(N)=O)C(=O)N[C@H](C(=O)N[C@H](C(=O)N[C@@H](CCC(N)=O)C(=O)O)[C@@H](C)O)[C@@H](C)CC)C(C)C)[C@@H](C)CC [GIP, Glucose-dependent inotropic peptide, reference compound]	0.0 ± 0.0	43.5 ± 0.8	0.1 ± 0.1	43.6 ± 0.8	20.36 ± 0.74	38.0	12.63 ± 1.70	38.8	12.46 ± 1.66	32.7	13.71 ± 0.86	30.5	14.16 ± 1.24	12.4	17.84 ± 0.87	363.99 ± 14.21	28.7				
CC[C@H](C)[C@H](NC(=O)[C@H](Cc1ccccc1)NC(=O)[C@H](CCC(=O)O)NC(=O)[C@H](CCCCN)NC(=O)[C@H](C)NC(=O)[C@H](C)NC(=O)[C@H](CCC(N)=O)NC(=O)CNC(=O)[C@H](CCC(=O)O)NC(=O)[C@H](CC(C)C)NC(=O)[C@H](Cc1ccc(O)cc1)NC(=O)[C@H](CO)NC(=O)[C@H](CO)NC(=O)[C@@H](NC(=O)[C@H](CC(=O)O)NC(=O)[C@H](CO)NC(=O)[C@@H](NC(=O)[C@H](Cc1ccccc1)NC(=O)[C@@H](NC(=O)CNC(=O)[C@H](CCC(=O)O)NC(=O)[C@H](C)NC(=O)[C@@H](N)Cc1c[nH]cn1)[C@@H](C)O)[C@@H](C)O)C(C)C)C(=O)N[C@@H](C)C(=O)N[C@@H](Cc1c[nH]c2ccccc12)C(=O)N[C@@H](CC(C)C)C(=O)N[C@H](C(=O)N[C@@H](CCCCN)C(=O)NCC(=O)N[C@@H](CCCNC(=N)N)C(N)=O)C(C)C [GLP-1, glucagon-like peptide-1, reference compound]	0.0 ± 0.0	43.2 ± 0.7	-0.1 ± 0.1	43.1 ± 0.7	20.30 ± 1.05	40.6	12.06 ± 1.36	41.9	11.79 ± 0.84	35.9	13.02 ± 0.86	30.9	14.03 ± 2.41	11.1	18.04 ± 0.71	359.61 ± 18.59	29.6				
CC[C@H](C)[C@H](NC(=O)[C@H](CC(C)C)NC(=O)[C@H](Cc1c[nH]c2ccccc12)NC(=O)[C@H](CCC(N)=O)NC(=O)[C@@H](NC(=O)[C@H](Cc1ccccc1)NC(=O)[C@H](C)NC(=O)[C@H](CCCCNC(=O)COCCOCCNC(=O)COCCOCCNC(=O)CC[C@H](NC(=O)CCCCCCCCCCCCCCCCC(=O)O)C(=O)O)NC(=O)[C@H](CCC(N)=O)NC(=O)[C@H](C)NC(=O)[C@@H](NC(=O)[C@H](CCCCN)NC(=O)[C@H](CC(=O)O)NC(=O)[C@H](CC(C)C)NC(=O)C1(NC(=O)[C@@H](NC(=O)[C@H](CO)NC(=O)[C@H](Cc2ccc(O)cc2)NC(=O)[C@H](CC(=O)O)NC(=O)[C@H](CO)NC(=O)[C@@H](NC(=O)[C@H](Cc2ccccc2)NC(=O)[C@@H](NC(=O)CNC(=O)[C@H](CCC(=O)O)NC(=O)C(C)(C)NC(=O)[C@@H](N)Cc2ccc(O)cc2)[C@@H](C)O)[C@@H](C)O)[C@@H](C)CC)CCC1)[C@@H](C)CC)C(C)C)C(=O)N[C@@H](C)C(=O)NCC(=O)NCC(=O)N1CCC[C@H]1C(=O)N[C@@H](CO)C(=O)N[C@@H](CO)C(=O)NCC(=O)N[C@@H](C)C(=O)N1CCC[C@H]1C(=O)N1CCC[C@H]1C(=O)N1CCC[C@H]1C(=O)N[C@@H](CO)C(N)=O [ID NO: 8]	0.0 ± 0.0	43.8 ± 0.7	-1.1 ± 0.2	42.7 ± 0.7	20.36 ± 0.87	48.1	10.56 ± 0.99	50.9	9.99 ± 0.86	51.7	9.83 ± 0.85	53.1	9.54 ± 1.12	41.3	11.95 ± 1.26	260.46 ± 21.31	49.0	-0.6 ± 0.1	43.2 ± 0.7	29.6	Blood glucose at different time after administration, 34 h [2]: 14.33 ± 1.43 mmol/L; Decrease rate of blood glucose at different time after administration, 48 h [2]: 15.7%
Semaglutide [reference compound]	0.0 ± 0.0	43.7 ± 1.0	-2.9 ± 0.2	40.7 ± 1.0	20.71 ± 1.14	56.0	9.12 ± 0.84	56.7	8.96 ± 1.40	59.8	8.32 ± 0.88	60.0	8.29 ± 0.86	59.0	8.49 ± 1.12	215.87 ± 18.67	57.7	-1.9 ± 0.2	41.7 ± 1.0	56.0	Blood glucose at different time after administration, 34 h [2]: 9.12 ± 0.83 mmol/L; Decrease rate of blood glucose at different time after administration, 48 h [2]: 13.9%
